This is an account of results in PMC8750417, “Intracellular Amplifiers of Reactive Oxygen Species Affecting Mitochondria as Radiosensitizers” (Cancers, 2021).

The structures appear in SMILES notation.

Holding throughout (type): cell-based, human
Data set [1] relates to A2780 cells. Description: Accumulation of prodrugs in A2780 cells (atomic emission spectrometry of B, Fe). To be noted: 5 µM, 4 h, Zn as internal standard, carrier = 1. On the procedure: colored arrow. After the initial lagging period, the oxidation reactions reach their maximum […]
Accumulation of prodrugs in A2780 cells
A2780 cells (around 150 cells/µL, 40 mL) were seeded in T175 flasks (Greiner, Germany) in RPMI 1640 medium supplemented with 5% FBS, 1% L-glutamine, and 1% penicillin/streptomycin and incubated for 3-4 days at 37°C in the chamber filled with 5%
CO2. Next, a fresh portion of RPMI 1640 medium supplemented with 5% FBS, 1% L - glutamine, and 1% penicillin/streptomycin was added to replace old medium. Prodrugs ([…], 400 µL in DMSO, final concentration: 5 µM) or carrier (DMSO, 400 µL, final concentration: 1%. v/v) were added into the bottles and the cells were further incubated at 37°C for 4 h. The cells were washed with DPBS (2 x 10 mL) and trypsinated (trypsin/EDTA, 0.025%/0.01%, v/v, 2 mL). After the cells were harvested and centrifuged (5 min, 1000 rpm) in 50 mL falcon tube, the cell pellet was re-suspended in DPBS (1 mL), the suspension - transferred to 1.5 mL EP tube and centrifuged one more time (2 min, 2000 rpm). The obtained cell pellet was shaken with concentrated HNO3 (65%, 100 µL) in an Eppendorf Thermomixer for 10 min at 95° C, 600 rpm. […] The insoluble components were separated by centrifugation (30 min, 13000 rpm) and the supernatant was analyzed by atomic emission spectrometry (AES) for the detection of B, Zn and Fe. […]

In data set [2] the test system is A2780 cells. Nature of the data set: Organelle-specific staining in A2780 cells (R123 MMP, AO lysosomes, ER, Golgi). To be noted: for effect on lysosomes (LY), endoplasmic reticulum (ER) and Golgi (GO) staining: A2780, 30 µM, 1-4 h; for MMP compared to the MMP of untreated cells: R123. On the procedure: Effect of prodrugs and controls on cellular organelles in A2780 cells: lysosomes (LY), endoplasmic reticulum (ER), Golgi (G) and mitochondria (Mit) (Figures 3, S56) A2780 cells were seeded in RPMI 1640 medium containing 5% FBS, 1% L-glutamine and 1% penicillin/streptomycin in a 24-well microtiter plate (total volume 0.5 mL) at a density of 200 cells/µL one day before the experiment. On the day of the experiment, prodrugs (“LY/ER/G”-experiments: stock solution - 3 mM, 5 µL, final concentration: 30 µM; “Mit”- experiment: stock solutions - 0.5, 1 and 3 mM, 5 µL, final concentrations: 5, 10, 30 µM) or carrier only (DMSO, 1%, v/v) were added to cells and incubated for 1, 4 and 24 h in a dark chamber filled with CO2 (5 %) at 37 °C. The cells were washed twice with DPBS buffer and the medium was replaced with HBSS (Hanks' Balanced Salt solution, 500 μL).
Stock solutions of different dyes (5 µL) were added: concentrations of the stock solutions were 4 mg/L for Acridine orange (AO), 10 mg/L for Rhodamine 123 (R123), 1 µM for ER-Tracker-Green (ERG) and 10 µM for Golgi-Staining-Green (GO). […]
Final concentrations of solutions were 40 µ g/L for AO, 100 µ g/L for R123, 0.01 µ M for ERG and 0.1 µ M for GO. The cells were incubated in the dark chamber filled with CO 2 (5%) at 37 ° C for 20 min. Afterwards the supernatant was removed, the cells were washed with DPBS buffer twice and detached from the culture dish using t rypsin/EDTA (0.025%/0.01%, v/v, 200 µ L). Next, the cells were re -suspended in fresh medium. Finally, the fluorescence of live cells (the number of total events was 5000, λex = 488 nm, λ em = 530 nm) in the suspensions was determined by using flow cytometry (N=3, Figure 3, S56).
Figure S56. Effects of the prodrugs on mitochondria membrane potential (MMP) of A2780 cell lines after 1 -48 h incubation. *: p< 0.05; **: p< 0.01; ***: p< 0.001 , Student’s t test. […]
reference (labelled on the plot). […]

The next data set relates to AsPC1 cells. Nature of the data set: Cell viability by flow cytometry, AsPC1. As to conditions: AsPC1, 72 h incubation. On the procedure: Table S3. Effects of the prodrugs on the viability of BL2 cell line (IC50 values) after 48 and […]
AsPC1 cells The cells (20.000/well) were seeded in a 12-well plate and incubated for 24 h. Afterwards, the medium was changed and the cells were further incubated for 72 h with medium containing different concentrations of compounds 2c and 5b. Viable cells were determined based on the morphological parameters by using flow cytometry (Table S4).
Table S4. Effects of the prodrugs on the viability of AsPC1 cell lines (IC50 values) after 72 […]
Jurkat cells The cells were counted in MUSE Cell Analyzer using MUSE® Count &Viability Assay Kit (Merck-Millipore, Billerica, MA, USA) and adjusted to a density of 1.0 x 10^5/ml in RPMI 1640 medium (with 10% FCS and 1% glutamine). 9.000 cells per well per 90 µL were seeded into 96 well culture plates. The 30 mM prodrug stock solutions in DMSO were diluted to 300 µM, 100 µM, 30 µM and 10 µM in cell culture medium and 10 µL of the dilutions was pipetted to the cells, receiving final test concentrations of 30 µM, 10 µM, 3 µM and 1 µM. Every concentration was tested in triplicates. Cells with corresponding amounts of DMSO served as negative controls. After 48 h cells were mixed and 25 µL of […]
Background: In flow cytometry, cells or beads pass a laser one at a time.

As to `CCOC(=O)CCCCCn1cc(CN(C(=O)OCc2ccc(B3OC(C)(C)C(C)(C)O3)cc2)[c-]2cccc2)nn1.[Fe+2].c1cc[cH-]c1` [compound 1], in the data set on A2780 cells [1], the Relative iron amount worked out at 1.4 ± 0.1.

In the case of `CC1(C)OB(c2ccc(COC(=O)N(Cc3cn(Cc4ccc(Cn5cc(Cc6ccccc6)nn5)cc4)nn3)[c-]3cccc3)cc2)OC1(C)C.[Fe+2].c1cc[cH-]c1` [2c], the “effect on lysosomes (LY), endoplasmic reticulum (ER) and Golgi (GO) staining” value in the data set on A2780 cells [2] was “affected neither LY nor ER nor GO”. The “MMP compared to the MMP of untreated cells” value with A2780 cells [2] (A2780, 1 h incubation) came to 69 ± 11%; with A2780 cells [2] (A2780, 24 h incubation), 30 ± 5%. In the data set on A2780 cells [1], the Relative iron amount is 5.0 ± 0.1. The IC50 in the data set on AsPC1 cells came to 7.1 ± 1 µM.

Consider `CC1(C)OB(c2ccc(COC(=O)N(Cc3cccc(CN4CCCCC4)c3)[c-]3cccc3)cc2)OC1(C)C.[Fe+2].c1cc[cH-]c1` [5b], for which, in the data set with A2780 cells [2], the “effect on lysosomes (LY), endoplasmic reticulum (ER) and Golgi (GO) staining” value is reported as “strongly affected lysosomes”. This compound also registered a half-inhibitory concentration (IC50) in the data set with AsPC1 cells of 6.7 ± 0.5 µM.

For orientation: IC50 means the point on the concentration scale where inhibition reaches its midpoint. A higher IC50 goes with weaker potency.
